Source: publication PMC6151383 (Molecules : A Journal of Synthetic Chemistry and Natural …, 2017)
Values after ≈ are worked out from the molar mass of the structure shown. Read-outs that look alike come from different tables or passages of the source.

Key:
[1] = test system: Staphylococcus aureus CCM 4516/08; test: Antibacterial microdilution broth MIC, S. aureus; type: cell-based; details: Staphylococcus aureus
[2] = test system: Staphylococcus epidermidis H 6966/08; test: Antibacterial microdilution broth MIC, S. epidermidis; type: cell-based; details: Staphylococcus epidermidis, H6966/08
[3] = test system: Enterococcus faecalis J 14365/08; test: Antibacterial microdilution broth MIC, E. faecalis; type: cell-based; details: Enterococcus faecalis, J14365/08; 48 h incubation; read-out: MIC EF 48 h
[4] = test system: Escherichia coli CCM 4517; test: Antibacterial microdilution broth MIC, E. coli; type: cell-based; details: Escherichia coli, CCM4517; 48 h incubation; read-out: MIC EC 48 h
[5] = test system: Pseudomonas aeruginosa CCM 1961; test: Antibacterial microdilution broth MIC, P. aeruginosa; type: cell-based; details: Pseudomonas aeruginosa, CCM1961; 48 h incubation; read-out: MIC PA 48 h
[6] = test system: Mycobacterium tuberculosis 331/88 (H37Rv); test: In vitro antimycobacterial MIC, M. tuberculosis; type: cell-based
[7] = test system: Mycobacterium avium 330/88; test: In vitro antimycobacterial MIC, M. avium; type: cell-based
[8] = test system: Mycobacterium kansasii 235/80; test: In vitro antimycobacterial MIC, M. kansasii 235/80; type: cell-based
M. kansasii 6509/96 = test: In vitro antimycobacterial MIC, M. kansasii clinical isolate; type: cell-based; details: Mycobacterium kansasii
[9] = test system: Candida albicans ATCC 44859; test: Antifungal microdilution broth MIC, C. albicans; type: cell-based
Candida tropicalis 156 = test: Antifungal microdilution broth MIC, C. tropicalis; type: cell-based
Candida krusei E28 = test: Antifungal microdilution broth MIC, C. krusei; type: cell-based; details: Pichia kudriavzevii
Candida glabrata 20/I = test: Antifungal microdilution broth MIC, C. glabrata; type: cell-based; details: Nakaseomyces glabratus, 48 h incubation, read-out: MIC CG 48 h
Trichosporon asahii 1188 = test: Antifungal microdilution broth MIC, T. asahii; type: cell-based
[10] = test system: Aspergillus fumigatus 231; test: Antifungal microdilution broth MIC, A. fumigatus; type: cell-based
[11] = test system: Lichtheimia corymbifera 272; test: Antifungal microdilution broth MIC, L. corymbifera; type: cell-based; details: Lichtheimia corymbifera, 272; 48 h incubation; read-out: MIC LC 48 h
[12] = test system: Trichophyton interdigitale 445; test: Antifungal microdilution broth MIC, T. interdigitale; type: cell-based
[13] = test system: yeasts (Candida sp., T. asahii); test: Antifungal activity against yeasts; type: cell-based; details: read-out: MIC for yeasts
[14] = test system: Klebsiella pneumoniae D 11750/08
[15] = test system: ESBL-positive Klebsiella pneumoniae J 14368/08
Candida sp. = test: Selectivity index for Candida sp. (IC50 HepG2/MIC); type: cell-based; details: all Candida species
M. tuberculosis and NTM = test: Antimycobacterial activity, panel; type: cell-based; details: Mycobacterium tuberculosis; range over all four mycobacterial strains and incubation times; read-out: MIC, M. tuberculosis and NTM
[16] = CCM4516, 48 h incubation, read-out: MIC SA 48 h
[17] = 48 h incubation, read-out: MIC SE 48 h
[18] = incubation time not given, read-out: MIC for S. epidermidis
[19] = 336 h, 14 d incubation, read-out: MIC Mtb. 331/88 14 d
[20] = 504 h, 21 d incubation, read-out: MIC Mtb. 331/88 21 d
[21] = 330/88, 336 h, 14 d incubation, read-out: MIC M. avium 330/88 14 d
[22] = 330/88, 504 h, 21 d incubation, read-out: MIC M. avium 330/88 21 d
[23] = 235/80, 168 h, 7 d incubation, read-out: MIC M. kansasii 235/80 7 d
[24] = 235/80, 336 h, 14 d incubation, read-out: MIC M. kansasii 235/80 14 d
[25] = 235/80, 504 h, 21 d incubation, read-out: MIC M. kansasii 235/80 21 d
[26] = 6509/96, 168 h, 7 d incubation, read-out: MIC M. kansasii 6509/96 7 d
[27] = 6509/96, 336 h, 14 d incubation, read-out: MIC M. kansasii 6509/96 14 d
[28] = 6509/96, 504 h, 21 d incubation, read-out: MIC M. kansasii 6509/96 21 d
[29] = ATCC44859, 48 h incubation, read-out: MIC CA 48 h
[30] = Candida tropicalis, 156, 48 h incubation, read-out: MIC CT 48 h
[31] = E28, 48 h incubation, read-out: MIC CK 48 h
[32] = Trichosporon asahii, 1188, 48 h incubation, read-out: MIC TA 48 h
[33] = Trichophyton interdigitale, 445, 72 h incubation, read-out: MIC TI 72 h
[34] = Trichophyton interdigitale, 445, 120 h incubation, read-out: MIC TI 120 h
[35] = Aspergillus fumigatus, 231, 48 h incubation, read-out: MIC AF 48 h
[36] = CCM4516, 24 h, read-out: MIC SA 24 h
[37] = CCM4516, 48 h, read-out: MIC SA 48 h

Compound	MIC [2, 17] [µM]	MIC [3] [µM]	MIC [4] [µM]	MIC [5] [µM]	MIC [6, 19] [µM]	MIC [6, 20] [µM]	MIC [7, 21] [µM]	MIC [7, 22] [µM]	MIC [8, 23] [µM]	MIC [8, 24] [µM]	MIC [8, 25] [µM]	MIC (M. kansasii 6509/96; [26]) [µM]	MIC (M. kansasii 6509/96; [27]) [µM]	MIC (M. kansasii 6509/96; [28]) [µM]	MIC (Candida glabrata 20/I) [µM]	MIC [11] [µM]	MIC KP 24 h [14] [µM]	MIC KP 48 h [14] [µM]	MIC KP-E 24 h [15] [µM]	MIC KP-E 48 h [15] [µM]	also measured
O=S(=O)(Nc1ncccn1)c1ccc(N=Cc2cc(O)ccc2O)cc1 [Compound 2i, 4-[(2,5-Dihydroxybenzylidene)amino]-N-(pyrimidin-2-yl)benzenesulfonamide]	15.6 (≈ 5.79 µg/mL)	250 (≈ 92.6 µg/mL)	500 (≈ 185 µg/mL)	500 (≈ 185 µg/mL)	125 (≈ 46.3 µg/mL)	125 (≈ 46.3 µg/mL)	500 (≈ 185 µg/mL)	1000 (≈ 370 µg/mL)	62.5 (≈ 23.1 µg/mL)	125 (≈ 46.3 µg/mL)	125 (≈ 46.3 µg/mL)	62.5 (≈ 23.1 µg/mL)	125 (≈ 46.3 µg/mL)	125 (≈ 46.3 µg/mL)	15.6 (≈ 5.79 µg/mL)	500 (≈ 185 µg/mL)	>500	>500	>500	>500	MIC ([1]; CCM 4516 / MRSA, S. aureus incl. MRSA, incubation time not given, read-out: MIC for S. aureus): 31.2 µM (≈ 11.6 µg/mL); MIC [1, 16]: 31.2 µM (≈ 11.6 µg/mL); MIC [2, 18]: 15.6 µM (≈ 5.79 µg/mL); MIC [9, 29]: 15.6 µM (≈ 5.79 µg/mL); MIC (Candida tropicalis 156; [30]): 15.6 µM (≈ 5.79 µg/mL); MIC (Candida krusei E28; [31]): 31.2 µM (≈ 11.6 µg/mL); MIC (Trichosporon asahii 1188; [32]): 15.6 µM (≈ 5.79 µg/mL); MIC ([10]; Aspergillus fumigatus, 231, 24 h, read-out: MIC AF 24 h): 125 µM (≈ 46.3 µg/mL); MIC ([10]; Aspergillus fumigatus, 231, 48 h, read-out: MIC AF 48 h): 125 µM (≈ 46.3 µg/mL); MIC [12, 33]: 1.95 µM (≈ 0.722 µg/mL); MIC [12, 34]: 1.95 µM (≈ 0.722 µg/mL); MIC ([13]; range over Candida sp. and T. asahii): 15.6 to 31.2 µM (≈ 5.79 to 11.6 µg/mL)
O=S(=O)(Nc1ncccn1)c1ccc(N=Cc2c(O)cccc2Cl)cc1 [Compound 2k, 4-[(2-Chloro-6-hydroxybenzylidene)amino]-N-(pyrimidin-2-yl)benzenesulfonamide]	> 250	> 250	> 250	> 250	125 (≈ 48.6 µg/mL)	125 (≈ 48.6 µg/mL)	250 (≈ 97.2 µg/mL)	250 (≈ 97.2 µg/mL)	62.5 (≈ 24.3 µg/mL)	125 (≈ 48.6 µg/mL)	250 (≈ 97.2 µg/mL)	62.5 (≈ 24.3 µg/mL)	125 (≈ 48.6 µg/mL)	125 (≈ 48.6 µg/mL)	> 250	> 250	>250	>250	>250	>250	MIC [1, 16]: > 250 µM; MIC [9, 29]: > 250 µM; MIC (Candida tropicalis 156; [30]): > 250 µM; MIC (Candida krusei E28; [31]): > 250 µM; MIC (Trichosporon asahii 1188; [32]): > 250 µM; MIC [10, 35]: > 250 µM; SI for TI ([12]; SI = IC50 (HepG2)/MIC, Trichophyton interdigitale): inactive; MIC [12, 33]: > 250 µM; MIC [12, 34]: > 250 µM; SI for Candida sp. (Candida sp.): inactive
O=S(=O)(Nc1ncccn1)c1ccc(N=Cc2cc(Cl)cc(Cl)c2O)cc1 [Compound 2m, 4-[(3,5-Dichloro-2-hydroxybenzylidene)amino]-N-(pyrimidin-2-yl)benzenesulfonamide]	31.2 (≈ 13.2 µg/mL)	> 500	> 500	> 500	125 (≈ 52.9 µg/mL)	125 (≈ 52.9 µg/mL)	250 (≈ 106 µg/mL)	500 (≈ 212 µg/mL)	125 (≈ 52.9 µg/mL)	250 (≈ 106 µg/mL)	500 (≈ 212 µg/mL)	62.5 (≈ 26.5 µg/mL)	125 (≈ 52.9 µg/mL)	250 (≈ 106 µg/mL)	31.2 (≈ 13.2 µg/mL)	500 (≈ 212 µg/mL)	>500	>500	500 (≈ 212 µg/mL)	500 (≈ 212 µg/mL)	MIC [1, 36]: 62.5 µM (≈ 26.5 µg/mL); MIC [1, 37]: 62.5 µM (≈ 26.5 µg/mL); MIC ([9]; ATCC44859, 24 h, read-out: MIC CA 24 h): 62.5 µM (≈ 26.5 µg/mL); MIC ([9]; ATCC44859, 48 h, read-out: MIC CA 48 h): 62.5 µM (≈ 26.5 µg/mL); MIC (Candida tropicalis 156; Candida tropicalis, 156, 24 h, read-out: MIC CT 24 h): 125 µM (≈ 52.9 µg/mL); MIC (Candida tropicalis 156; Candida tropicalis, 156, 48 h, read-out: MIC CT 48 h): 125 µM (≈ 52.9 µg/mL); MIC (Candida krusei E28; E28, 24 h, read-out: MIC CK 24 h): 62.5 µM (≈ 26.5 µg/mL); MIC (Candida krusei E28; E28, 48 h, read-out: MIC CK 48 h): 62.5 µM (≈ 26.5 µg/mL); MIC (Trichosporon asahii 1188; Trichosporon asahii, 1188, 24 h, read-out: MIC TA 24 h): 62.5 µM (≈ 26.5 µg/mL); MIC (Trichosporon asahii 1188; Trichosporon asahii, 1188, 48 h, read-out: MIC TA 48 h): 62.5 µM (≈ 26.5 µg/mL); MIC [10, 35]: 250 µM (≈ 106 µg/mL); MIC ([12]; Trichophyton interdigitale, 445, 72 h, read-out: MIC TI 72 h): 125 µM (≈ 52.9 µg/mL); MIC ([12]; Trichophyton interdigitale, 445, 120 h, read-out: MIC TI 120 h): 125 µM (≈ 52.9 µg/mL); MIC [13]: 31.2 to 125 µM (≈ 13.2 to 52.9 µg/mL)
O=[N+]([O-])c1ccc(C=Nc2ccc(S(=O)(=O)Nc3ncccn3)cc2)o1 [Compound 2q, 4-{[(5-Nitrofuran-2-yl)methylene]amino}-N-(pyrimidin-2-yl)benzenesulfonamide]	31.2 (≈ 11.7 µg/mL)	> 500	> 500	250 (≈ 93.3 µg/mL)	125 (≈ 46.7 µg/mL)	125 (≈ 46.7 µg/mL)	500 (≈ 187 µg/mL)	500 (≈ 187 µg/mL)	125 (≈ 46.7 µg/mL)	250 (≈ 93.3 µg/mL)	250 (≈ 93.3 µg/mL)	62.5 (≈ 23.3 µg/mL)	62.5 (≈ 23.3 µg/mL)	125 (≈ 46.7 µg/mL)	250 (≈ 93.3 µg/mL)	> 500	500 (≈ 187 µg/mL)	500 (≈ 187 µg/mL)	500 (≈ 187 µg/mL)	500 (≈ 187 µg/mL)	MIC [1, 36]: 125 µM (≈ 46.7 µg/mL); MIC [1, 37]: 125 µM (≈ 46.7 µg/mL); MIC [2, 18]: 31.2 µM (≈ 11.7 µg/mL); MIC [9, 29]: 250 µM (≈ 93.3 µg/mL); MIC (Candida tropicalis 156; [30]): 250 µM (≈ 93.3 µg/mL); MIC (Candida krusei E28; [31]): 250 µM (≈ 93.3 µg/mL); MIC (Trichosporon asahii 1188; [32]): 500 µM (≈ 187 µg/mL); MIC [10, 35]: 500 µM (≈ 187 µg/mL); MIC [12, 33]: 250 µM (≈ 93.3 µg/mL); MIC [12, 34]: 250 µM (≈ 93.3 µg/mL); MIC (M. tuberculosis and NTM): ≥ 62.5 µM
